Data taken from patent publication US7977322B2 (Vertex Pharmaceuticals Incorporated, priority 2004, dated 2011).

Molecular target: T1, ΔF508-CFTR (Homo sapiens, UniProt P13569, DEL508-508)
T1 construct: expressed in transfected cells
Experiment: Membrane potential optical (FRET/VIPR) assay, identification of correction compounds
Assay type: cell-based
Settings: Table 3, assay not given; for Emax: read-out: % Activity / % Efficacy (relative efficacy)
Description: I) Membrane Potential Optical Methods for Assaying ΔF508-CFTR Modulation Properties of Compounds
These voltage sensitive assays are based on the change in fluorescence resonant energy transfer (FRET) between the membrane-soluble, voltage-sensitive dye, DiSBAC2(3), and a fluorescent phospholipid, CC2-DMPE, which is attached to the outer leaflet of the plasma membrane and acts as a FRET donor. Changes in membrane potential (Vm) cause the negatively charged DiSBAC2(3) to redistribute across the plasma membrane and the amount of energy transfer from CC2-DMPE changes accordingly. The changes in fluorescence emission were monitored using VIPR™ II, which is an integrated liquid handler and fluorescent detector designed to conduct cell-based screens in 96- or 384-well microtiter plates.
Identification of Correction Compounds
To identify small molecules that correct the trafficking defect associated with ΔF508-CFTR; a single-addition HTS assay format was developed. The cells were incubated in serum-free medium for 16 hrs at 37° C. in the presence or absence (negative control) of test compound. As a positive control, cells plated in 384-well plates were incubated for 16 hrs at 27° C. to “temperature-correct” ΔF508-CFTR. The cells were subsequently rinsed 3× with Krebs Ringers solution and loaded with the voltage-sensitive dyes. To activate ΔF508-CFTR, 10 μM forskolin and the CFTR potentiator, genistein (20 μM), were added along with Cl^− free medium to each well. The addition of Cl^− free medium promoted Cl^− efflux in response to ΔF508-CFTR activation and the resulting membrane depolarization was optically monitored using the FRET-based voltage-sensor dyes.
• Bath Solution #1: (in mM) NaCl 160, KCl 4.5, CaCl2 2, MgCl2 1, HEPES 10, pH 7.4 with NaOH. • Chloride-free bath solution: Chloride salts in Bath Solution #1 are substituted with gluconate salts. • CC2-DMPE: Prepared as a 10 mM stock solution in DMSO and stored at −20° C. • DiSBAC2(3): Prepared as a 10 mM stock in DMSO and stored at −20° C.
NIH3T3 mouse fibroblasts stably expressing ΔF508-CFTR are used for optical measurements of membrane potential. The cells are maintained at 37° C. in 5% CO2 and 90% humidity in Dulbecco's modified Eagle's medium supplemented with 2 mM glutamine, 10% fetal bovine serum, 1×NEAA, β-ME, 1×pen/strep, and 25 mM HEPES in 175 cm^2 culture flasks. For all optical assays, the cells were seeded at 30,000/well in 384-well matrigel-coated plates and cultured for 2 hrs at 37° C. before culturing at 27° C. for 24 hrs. for the potentiator assay.

T1 sequence (P13569 with tags, fused parts or gaps DEL508-508): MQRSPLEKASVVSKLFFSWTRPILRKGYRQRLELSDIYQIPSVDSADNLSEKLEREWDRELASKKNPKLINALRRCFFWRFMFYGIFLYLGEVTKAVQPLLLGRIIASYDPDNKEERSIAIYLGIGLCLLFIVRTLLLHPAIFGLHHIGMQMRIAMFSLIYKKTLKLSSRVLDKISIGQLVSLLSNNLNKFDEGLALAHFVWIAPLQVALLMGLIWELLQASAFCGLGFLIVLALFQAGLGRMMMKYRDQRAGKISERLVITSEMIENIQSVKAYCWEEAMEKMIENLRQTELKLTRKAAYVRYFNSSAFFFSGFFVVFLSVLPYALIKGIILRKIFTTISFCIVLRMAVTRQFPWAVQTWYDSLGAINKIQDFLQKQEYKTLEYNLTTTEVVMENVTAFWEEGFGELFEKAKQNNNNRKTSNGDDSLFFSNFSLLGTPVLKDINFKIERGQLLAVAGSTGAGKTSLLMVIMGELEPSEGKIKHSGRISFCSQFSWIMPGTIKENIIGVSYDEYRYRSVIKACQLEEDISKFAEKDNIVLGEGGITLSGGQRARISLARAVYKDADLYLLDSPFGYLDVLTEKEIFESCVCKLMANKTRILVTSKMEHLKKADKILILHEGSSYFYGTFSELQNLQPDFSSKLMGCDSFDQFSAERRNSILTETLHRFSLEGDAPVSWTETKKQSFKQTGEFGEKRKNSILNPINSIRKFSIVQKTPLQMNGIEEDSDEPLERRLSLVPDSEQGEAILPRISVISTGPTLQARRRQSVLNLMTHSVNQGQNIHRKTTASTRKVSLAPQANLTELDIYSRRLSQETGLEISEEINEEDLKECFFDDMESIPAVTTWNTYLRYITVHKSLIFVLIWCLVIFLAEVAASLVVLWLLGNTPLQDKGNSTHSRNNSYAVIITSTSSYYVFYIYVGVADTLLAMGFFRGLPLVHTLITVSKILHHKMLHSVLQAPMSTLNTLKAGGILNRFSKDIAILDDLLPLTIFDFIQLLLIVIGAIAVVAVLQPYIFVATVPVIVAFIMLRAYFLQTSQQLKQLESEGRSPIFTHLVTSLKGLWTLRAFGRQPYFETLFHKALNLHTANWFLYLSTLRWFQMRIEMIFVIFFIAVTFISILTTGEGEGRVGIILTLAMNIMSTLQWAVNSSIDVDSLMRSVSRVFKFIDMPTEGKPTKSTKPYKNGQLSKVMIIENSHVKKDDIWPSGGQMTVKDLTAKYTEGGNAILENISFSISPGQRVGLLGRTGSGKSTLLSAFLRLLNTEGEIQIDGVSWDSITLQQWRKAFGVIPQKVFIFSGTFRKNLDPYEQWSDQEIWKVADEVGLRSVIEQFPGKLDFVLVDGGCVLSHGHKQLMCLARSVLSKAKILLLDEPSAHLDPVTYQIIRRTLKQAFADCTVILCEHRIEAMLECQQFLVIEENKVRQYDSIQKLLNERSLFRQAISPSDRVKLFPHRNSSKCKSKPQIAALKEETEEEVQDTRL

% Activity / % Efficacy (relative efficacy)	EC50 [µM]	Emax [%]	SMILES
+++ (“+++” means>100%)	< 10	–	COc1ccc(Cc2cnc(NC(=O)C3(c4ccc5c(c4)OCO5)CC3)s2)cc1 [Example 183]
+++ (“+++” means>100%)	< 10	–	CSc1ccc(C2(C(=O)Nc3ncc(Cc4ccccc4Cl)s3)CC2)cc1 [Example 175]
++ (“++” means between 25% to 100%)	25 to 60	–	CCN(CC)CCn1cc(Cc2ccccc2Cl)s/c1=N/C(=O)C1(c2ccc(OC)cc2)CC1 [Example 74]
–	< 10	25 to 100	O=C(Nc1ncc(C(NCCN2CCCC2)c2ccccc2Cl)s1)C1(c2ccc3c(c2)OCO3)CC1 (centres unmarked) [Example 406]
–	< 10	> 100	O=C(Nc1ncc(C(c2cc(F)ccc2F)N2CCCC2)s1)C1(c2ccc3c(c2)OCO3)CC1 (centres unmarked) [Example 471]
–	< 10	> 100	COc1cccc(C(c2cnc(NC(=O)C3(c4ccc5c(c4)OCO5)CC3)s2)N2CCC[C@@H]2C(N)=O)c1 (some centres unmarked) [Example 370]
–	< 10	> 100	CCC[C@@H](CO)NC(c1cnc(NC(=O)C2(c3ccc4c(c3)OCO4)CC2)s1)c1ccccc1Cl (some centres unmarked) [Example 485]
–	< 10	> 100	COc1ccc(C(c2cnc(NC(=O)C3(c4ccc5c(c4)OCO5)CC3)s2)N2CCCCC2)cc1 (centres unmarked) [Example 361]
–	10 to 25	> 100	O=C(Nc1ncc(C(c2ccccc2Cl)N2CC[C@@H](O)C2)s1)C1(c2ccc(F)cc2)CC1 (some centres unmarked) [Example 421]
–	< 10	> 100	CC1(C)CC(NC(c2cnc(NC(=O)C3(c4ccc5c(c4)OCO5)CC3)s2)c2ccccc2Cl)CCO1 (centres unmarked) [Example 429]
–	< 10	> 100	COCCNC(c1cnc(NC(=O)C2(c3ccc4c(c3)OCO4)CC2)s1)c1ccccc1Cl (centres unmarked) [Example 439]
–	< 10	> 100	O=C(Nc1ncc(C(c2ccccc2Cl)N2CC[C@@H](O)C2)s1)C1(c2ccc(Cl)cc2)CC1 (some centres unmarked) [Example 449]
–	10 to 25	> 100	COc1ccccc1C(c1cnc(NC(=O)C2(c3ccc4c(c3)OCO4)CC2)s1)N1CCC(O)CC1 (centres unmarked) [Example 348]
–	< 10	25 to 100	CN1CCCC1CCNC(c1cnc(NC(=O)C2(c3ccc4c(c3)OCO4)CC2)s1)c1ccccc1Cl (centres unmarked) [Example 405]
–	–	> 100	CC(C)CC(CO)NC(c1cnc(NC(=O)C2(c3ccc4c(c3)OCO4)CC2)s1)c1cccc2c1OC(F)(F)O2 (centres unmarked) [Example 498]
–	< 10	> 100	O=C(Nc1ncc(C(c2ccccc2Cl)N2CC[C@@H](O)C2)s1)C1(c2ccccc2Cl)CC1 (some centres unmarked) [Example 419]
+++ (“+++” means>100%)	< 10	–	COc1ccc(C2(C(=O)Nc3ncc(C4(c5ccccc5OC)CC4)s3)CC2)cc1 [Example 243]
+++ (“+++” means>100%)	< 10	–	O=C(Nc1nc2c(s1)-c1ccccc1CC2)C1(c2ccc3c(c2)OCO3)CC1 [Example 110]
–	< 10	> 100	COc1ccc(C(c2cnc(NC(=O)C3(c4ccc5c(c4)OCO5)CC3)s2)N2CCOCC2)cc1 (centres unmarked) [Example 400]
–	< 10	> 100	C[C@@H](O)CNC(c1cnc(NC(=O)C2(c3ccc4c(c3)OCO4)CC2)s1)c1ccccc1Cl (some centres unmarked) [Example 487]
–	< 10	> 100	CC1CCc2c(sc(NC(=O)C3(c4ccc5c(c4)OCO5)CC3)c2C#N)C1 (centres unmarked) [Example 296]
–	< 10	> 100	CCNC(c1cnc(NC(=O)C2(c3ccc4c(c3)OCO4)CC2)s1)c1ccccc1Cl (centres unmarked) [Example 432]
–	< 10	> 100	COc1cccc(C(c2cnc(NC(=O)C3(c4ccc5c(c4)OCO5)CC3)s2)N2CCCC2)c1 (centres unmarked) [Example 373]
–	< 10	> 100	NC(=O)C1CCCN(C(c2cnc(NC(=O)C3(c4ccc5c(c4)OCO5)CC3)s2)c2ccccc2Cl)C1 (centres unmarked) [Example 418]
